Measurements: patent US8445510B2, “Fused bicyclic kinase inhibitors” (OSI Pharmaceuticals, LLC, priority 2011, dated 2013)

What was measured:
Aurora B = target: T1, Aurora B (Homo sapiens, UniProt Q96GD4); test: Aurora B cell mechanistic assay (HT-29), phospho-Histone H3 (Ser10) ELISA; type: cell-based; settings: HT-29 cell line; inhibition of phospho-Histone H3 (Ser10); at least duplicate experiments (italicized if single experiment); read-out: Aurora B mech IC50
T1 construct: HT-29 cells grown in complete growth media
T1 sequence (Q96GD4 whole entry): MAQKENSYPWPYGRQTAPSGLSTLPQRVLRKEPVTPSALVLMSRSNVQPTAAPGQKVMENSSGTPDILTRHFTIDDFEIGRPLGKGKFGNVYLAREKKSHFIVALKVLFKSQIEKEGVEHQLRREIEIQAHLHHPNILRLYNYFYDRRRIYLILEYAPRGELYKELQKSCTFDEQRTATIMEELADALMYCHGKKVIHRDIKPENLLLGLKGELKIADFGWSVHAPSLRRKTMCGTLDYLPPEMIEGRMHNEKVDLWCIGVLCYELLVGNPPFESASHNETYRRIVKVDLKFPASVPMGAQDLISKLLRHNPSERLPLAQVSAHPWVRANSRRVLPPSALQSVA
Protocol: The cellular activity of the compounds of the present invention against Aurora B may be determined by the following procedure. HT-29 cells grown in complete growth media (McCoy's 5A, 10% FCS, 1% L-glutamine) were plated into wells of a 96 well tissue culture plate (Falcon 3072) at a cell density of 4×10^4 cells/0.09 ml media/well. Cells were subsequently incubated overnight in a 5% CO2 humidified 37° C. incubator. The following day 10 μl of a 10× stock of test compound serially diluted in media was added to the cells and incubated for 1 h at 37° C. at which time Calyculin A (Cell Signaling #9902) was added at a concentration of 100 nM and cells incubated for an additional 30 minutes in a 5% CO2 humidified 37° C. incubator. Media was then aspirated and cells lysed using a Triton based lysis buffer. Lysates were transferred to a pre-coated anti-Histone H3 antibody coated plate supplied by Cell Signaling in their PathScan phospho-Histone H3 (Ser10) ELISA kit (#7155). After an overnight incubation with lysate the ELISA was continued following the manufacturer's instructions. Signal was measured on a Wallac Victor plate reader at 450 nm. DMSO control treated cells served as 100% signal and an Aurora B kinase inhibitor served as 100% inhibition. The percent inhibition of phospho-Histone H3 (Ser10) was expressed as % control. IC50 values were calculated from the percent control data using a standard four-parameter model.
The IC50 values of exemplary compounds of the present invention determined in a Aurora B cell mechanistic assay using the HT-29 cell line according to the procedures described herein in at least duplicate experiments are abbreviated as follows and are shown in Table 4: A, IC50≦0.05 μM; B, 0.05 μM<IC50≦0.2 μM; C, 0.2 μM<IC50≦1 μM; D, IC50>1 μM; ND, not determined. If only data from single experiments are available, the abbreviations are italicized. The Example # of Table 4 corresponds to the compound example number as illustrated in the Examples section.

MKN45 cells = test: MKN45 cell proliferation assay (CellTiter-Glo); type: cell-based; settings: Homo sapiens, MKN-45, 72 h; MKN45 cell line; 3 days incubation; at least duplicate experiments; read-out: Prolif. IC50

IC50 (Aurora B) [nM]	IC50 (MKN45 cells) [nM]	SMILES
50 to 200	≤ 50	CNC(=O)[C@H]1CC[C@H](n2cc(-c3cnc4[nH]cc([C@H](C)c5c(OC)ccc(F)c5Cl)c4c3)c(C)n2)CC1 [Example 22, trans-4-(4-{3-[(1S)-1-(2-Chloro-3-fluoro-6-methoxyphenyl)ethyl]-1H-pyrrolo[2,3-b]pyridin-5-yl}-3-methyl-1H-pyrazol-1-yl)-N-methylcyclohexanecarboxamide]
200 to 1000	≤ 50	C[C@H](c1c(OC(F)F)ccc(F)c1Cl)c1c[nH]c2ncc(-c3cnn([C@H]4CC[C@H](O)CC4)c3F)cc12 [Example 84, trans-4-[4-(3-{(1S)-1-[2-Chloro-6-(difluoromethoxy)-3-fluorophenyl]ethyl}-1H-pyrrolo[2,3-b]pyridin-5-yl)-5-fluoro-1H-pyrazol-1-yl]cyclohexanol]
> 1000	200 to 1000	COc1ccc(F)c(Cl)c1[C@@H](C)c1c[nH]c2ncc(-c3cnn(C)c3C(N)=O)cc12 [Example 43, 4-{3-[(1S)-1-(2-Chloro-3-fluoro-6-methoxyphenyl)ethyl]-1H-pyrrolo[2,3-b]pyridin-5-yl}-1-methyl-1H-pyrazole-5-carboxamide]
> 1000	≤ 50	C[C@H](c1c(OC(F)F)ccc(F)c1Cl)c1c[nH]c2ncc(-c3cnn([C@H]4CC[C@H](O)CC4)c3CO)cc12 [Example 83, trans-4-[4-(3-{(1S)-1-[2-Chloro-6-(difluoromethoxy)-3-fluorophenyl]ethyl}-1H-pyrrolo[2,3-b]pyridin-5-yl)-5-(hydroxymethyl)-1H-pyrazol-1-yl]cyclohexanol]
> 1000	≤ 50	Cc1c(-c2cnc3[nH]cc([C@H](C)c4c(OC(F)F)ccc(F)c4Cl)c3c2)cnn1[C@H]1C[C@@H](O)C1 [Example 81, cis-3-[4-(3-{(1S)-1-[2-Chloro-6-(difluoromethoxy)-3-fluorophenyl]ethyl}-1H-pyrrolo[2,3-b]pyridin-5-yl)-5-methyl-1H-pyrazol-1-yl]cyclobutanol]
> 1000	≤ 50	[2H]C([2H])([2H])[C@H](c1c(OC)ccc(F)c1Cl)c1c[nH]c2ncc(-c3cnn([C@H]4CC[C@H](O)CC4)c3C)cc12 [Example 111, trans-4-(4-{3-[(1S)-1-(2-Chloro-3-fluoro-6-methoxyphenyl)(2,2,2-^2H3)ethyl]-1H-pyrrolo[2,3-b]pyridin-5-yl}-5-methyl-1H-pyrazol-1-yl)cyclohexanol]
200 to 1000	≤ 50	COc1ccc(F)c(Cl)c1[C@@H](C)c1c[nH]c2ncc(-c3cnn(CC(C)(C)O)c3C)cc12 [Example 8, 1-(4-{3-[(1S)-1-(2-Chloro-3-fluoro-6-methoxyphenyl)ethyl]-1H-pyrrolo[2,3-b]pyridin-5-yl}-5-methyl-1H-pyrazol-1-yl)-2-methylpropan-2-ol]
> 1000	≤ 50	CCc1nn(CC(C)(C)O)cc1-c1cnc2[nH]cc([C@H](C)c3c(OC(F)F)ccc(F)c3Cl)c2c1 [Example 73, 1-[4-(3-{(1S)-1-[2-Chloro-6-(difluoromethoxy)-3-fluorophenyl]ethyl}-1H-pyrrolo[2,3-b]pyridin-5-yl)-3-ethyl-1H-pyrazol-1-yl]-2-methylpropan-2-ol]
> 1000	≤ 50	Cc1c(-c2cnc3[nH]cc([C@H](C)c4c(O)ccc(F)c4Cl)c3c2)cnn1[C@H]1CC[C@H](O)CC1 [Example 102, 3-Chloro-4-fluoro-2-[(1S)-1-{5-[1-(trans-4-hydroxycyclohexyl)-5-methyl-1H-pyrazol-4-yl]-1H-pyrrolo[2,3-b]pyridin-3-yl}ethyl]phenol]
200 to 1000	50 to 200	COc1ccc(F)c(Cl)c1[C@@H](C)c1c[nH]c2ncc(-c3cn(C)nc3Cl)cc12 [Example 60, 3-[(1S)-1-(2-chloro-3-fluoro-6-methoxyphenyl)ethyl]-5-(3-chloro-1-methyl-1H-pyrazol-4-yl)-1H-pyrrolo[2,3-b]pyridine]
200 to 1000	50 to 200	COc1ccc(F)c(Cl)c1[C@@H](C)c1c[nH]c2ncc(-c3cn(C)nc3CN)cc12 [Example 50, 1-(4-{3-[(1S)-1-(2-Chloro-3-fluoro-6-methoxyphenyl)ethyl]-1H-pyrrolo[2,3-b]pyridin-5-yl}-1-methyl-1H-pyrazol-3-yl)methanamine]
200 to 1000	≤ 50	Cc1c(-c2cnc3[nH]cc([C@H](C)c4c(OC(C)C)ccc(F)c4Cl)c3c2)cnn1[C@H]1CC[C@H](O)CC1 [Example 104, trans-4-[4-(3-{(1S)-1-[2-Chloro-3-fluoro-6-(propan-2-yloxy)phenyl]ethyl}-1H-pyrrolo[2,3-b]pyridin-5-yl)-5-methyl-1H-pyrazol-1-yl]cyclohexanol]
> 1000	50 to 200	CCc1nn(CC(C)(C)O)cc1-c1cnc2[nH]cc([C@H](C)c3c(OC)ccc(F)c3Cl)c2c1 [Example 12, 1-(4-{3-[(1S)-1-(2-Chloro-3-fluoro-6-methoxyphenyl)ethyl]-1H-pyrrolo[2,3-b]pyridin-5-yl}-3-ethyl-1H-pyrazol-1-yl)-2-methylpropan-2-ol]
200 to 1000	≤ 50	Cc1c(-c2cnc3[nH]cc([C@H](C)c4c(OC(F)F)ccc(F)c4Cl)c3c2)cnn1C[C@H](O)CO [Example 70, (2S)-3-[4-(3-{(1S)-1-[2-Chloro-6-(difluoromethoxy)-3-fluorophenyl]ethyl}-1H-pyrrolo[2,3-b]pyridin-5-yl)-5-methyl-1H-pyrazol-1-yl]propane-1,2-diol]
> 1000	≤ 50	COc1ccc(F)c(Cl)c1[C@@H](C)c1c[nH]c2ncc(-c3cnn([C@H]4CC[C@H](O)CC4)c3Cl)cc12 [Example 49, trans-4-(5-Chloro-4-{3-[(1S)-1-(2-chloro-3-fluoro-6-methoxyphenyl)ethyl]-1H-pyrrolo[2,3-b]pyridin-5-yl}-1H-pyrazol-1-yl)cyclohexanol]
> 1000	> 1000	COc1ccc(F)c(Cl)c1[C@@H](C)c1c[nH]c2ncc(-c3c(C)nn(C)c3C(N)=O)cc12 [Example 41, 4-{3-[(1S)-1-(2-Chloro-3-fluoro-6-methoxyphenyl)ethyl]-1H-pyrrolo[2,3-b]pyridin-5-yl}-1,3-dimethyl-1H-pyrazole-5-carboxamide]
50 to 200	≤ 50	Cc1nn(C[C@H](O)CO)cc1-c1cnc2[nH]cc([C@H](C)c3c(OC(F)F)ccc(F)c3Cl)c2c1 [Example 71, (2S)-3-[4-(3-{(1S)-1-[2-Chloro-6-(difluoromethoxy)-3-fluorophenyl]ethyl}-1H-pyrrolo[2,3-b]pyridin-5-yl)-3-methyl-1H-pyrazol-1-yl]propane-1,2-diol]
> 1000	200 to 1000	COc1ccc(F)c(Cl)c1[C@@H](C)c1c[nH]c2ncc(-c3c(C)nn(C)c3CO)cc12 [Example 45, (4-{3-[(1S)-1-(2-Chloro-3-fluoro-6-methoxyphenyl)ethyl]-1H-pyrrolo[2,3-b]pyridin-5-yl}-1,3-dimethyl-1H-pyrazol-5-yl)methanol]
50 to 200	≤ 50	COc1ccc(F)c(Cl)c1[C@@H](C)c1c[nH]c2ncc(-c3cn([C@@H]4C[C@@H](O)[C@@H](O)C4)nc3C)cc12 [Example 32, (1R,2S,4S)-4-(4-{3-[(1S)-1-(2-Chloro-3-fluoro-6-methoxyphenyl)ethyl]-1H-pyrrolo[2,3-b]pyridin-5-yl}-3-methyl-1H-pyrazol-1-yl)cyclopentane-1,2-diol]
> 1000	200 to 1000	COc1ccc(F)c(Cl)c1[C@@H](C)c1c[nH]c2ncc(-c3c(C)nn(C)c3Cl)cc12 [Example 63, 5-(5-Chloro-1,3-dimethyl-1H-pyrazol-4-yl)-3-[(1S)-1-(2-chloro-3-fluoro-6-methoxyphenyl)ethyl]-1H-pyrrolo[2,3-b]pyridine]
200 to 1000	≤ 50	COc1ccc(F)c(Cl)c1[C@@H](C)c1c[nH]c2ncc(-c3cnn(C)c3N)cc12 [Example 38, 4-{3-[(1S)-1-(2-Chloro-3-fluoro-6-methoxyphenyl)ethyl]-1H-pyrrolo[2,3-b]pyridin-5-yl}-1-methyl-1H-pyrazol-5-amine]
> 1000	50 to 200	COc1ccc(F)c(Cl)c1[C@@H](C)c1c[nH]c2ncc(-c3cnn(C[C@@H](O)CO)c3C(F)(F)F)cc12 [Example 35, (2R)-3-[4-{3-[(1S)-1-(2-Chloro-3-fluoro-6-methoxyphenyl)ethyl]-1H-pyrrolo[2,3-b]pyridin-5-yl}-5-(trifluoromethyl)-1H-pyrazol-1-yl]propane-1,2-diol]
